Reference: patent US5866570A, “Treatment of vascular leakage and related syndrome such as septic shock by administration of metalloproteinase inhibitors” (Wisconsin Alumni Research Foundation, priority 1994, dated 1999)
Where two headings read alike, the source gives them in different places.

Experiments:
[1] = target: T1, recombinant human 72 kD type IV collagenase (Oncologix), APMA activated (Homo sapiens, UniProt P08253); test: gelatinase assay, Example 11; assay type: biochemical
T1 construct: purchased Oncologix
T1 sequence (P08253 110-660): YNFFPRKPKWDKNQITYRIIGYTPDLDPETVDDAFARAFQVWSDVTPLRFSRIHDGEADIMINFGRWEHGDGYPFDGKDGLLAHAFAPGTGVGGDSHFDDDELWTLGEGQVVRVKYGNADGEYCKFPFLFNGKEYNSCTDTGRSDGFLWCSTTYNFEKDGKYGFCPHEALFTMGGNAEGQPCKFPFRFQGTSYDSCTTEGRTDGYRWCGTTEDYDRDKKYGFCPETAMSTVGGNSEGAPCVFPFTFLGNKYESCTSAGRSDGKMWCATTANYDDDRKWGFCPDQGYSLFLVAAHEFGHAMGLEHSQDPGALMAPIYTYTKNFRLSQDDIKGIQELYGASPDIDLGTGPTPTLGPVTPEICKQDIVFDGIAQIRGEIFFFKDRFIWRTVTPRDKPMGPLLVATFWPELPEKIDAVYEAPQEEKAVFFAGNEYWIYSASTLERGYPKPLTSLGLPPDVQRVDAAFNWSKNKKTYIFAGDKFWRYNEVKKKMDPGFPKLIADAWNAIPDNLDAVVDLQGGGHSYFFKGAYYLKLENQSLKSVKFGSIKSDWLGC
Experimental: NET-660 Collagen (Rat Type I), N-[Propionate-2-3-^3 H] Propionylated (NEN Dupont) with a specific activity of 0.4 mCi/mg, rat type I Collagen (Sigma), P-aminophenylmercuric acetate, APMA (Sigma), recombinant human 72 kD type IV collagenase (Oncologix) with a specific activity of at least 1000 μg collagen digested/hour/μg enzyme, collagenase buffer (50 mM Tris-HCl, 5 mM CaCl2, 200 mM NaCl, 0.02% Brij-35, pH 7.6), bovine serum albumin (BSA), 250 mM EDTA, and 10% TCA+0.7% tannic acid. The substrate is prepared by mixing the ^3 H collagen with the cold collagen at a 2/3 ratio and diluting in the collagenase buffer. The final assay concentration of the ^3 H collagen is 1% or between 20,000 to 40,000 cpm. Inhibitors are prepared just prior to use by dissolving in DMSO (final assay concentration<1%) or collagenase buffer.
The 72 kD collagenase enzyme is activated with 0.5 mM APMA for 30 min. at 37° C. and 10 ng of enzyme per assay is used. Inhibitors are preincubated with activated enzyme for 2 hours at 37° C. in collagenase buffer. Substrate is then added to enzyme inhibitor mix and the assay is run for 20 min at 37° C. […] Undigested substrate is precipitated with the TCA/tannic acid solution and soluble counts are determined in a scintillation counter.

BALB/C mice = test: septic shock induced by i.p. endotoxin (Salmonella abortus equi); assay type: in vivo; conditions: for Survival/Total Ratio after 24 h / Survival/Total Ratio after 48 h / Survival/Total Ratio after 72 h: endotoxin2 (Salmonella abortus equi) i.p., drug i.p. 1 h before, 9 h and 20 h after
Experimental: Effect of razoxane in preventing death due to endotoxin-induced septic shock. Twelve BALB/c mice (female, 10-12 weeks old, 18-20 g) were injected i.p. with endotoxin (Salmonella abortus equi) twice at time zero (70 μg/mouse) and 48 h (30 μg/mouse). Razoxane (2 mg/mouse, in 1% sodium carboxymethyl cellulose) was given i.p. three times, i.e., 1 h. before, 9 h. and 20 h. after injection of initial dose of endotoxin. Another twelve mice, injected with endotoxin as above, were treated with buffer solution (1 % sodium carboxymethyl cellulose) as negative controls. It can be seen therein that the majority of control mice were dead within 50 hours of the initial endotoxin administration. In contrast, approximately 80% of the razoxane treated mice were still alive after 50 hours. Moreover, about 60% of the razoxane treated mice were still alive 100 hours after endotoxin administration, and recovered later on.
Effect of Compound 80 in preventing death due to endotoxin-induced septic shock. Twenty BALB/c mice (female, 10-12 weeks old, 18-20 g) were injected i.p. with endotoxin (Salmonella abortus equi, 100 μg/mouse). Compound 80 (0.33 mg/mouse) was given i.p. to 10 mice three times, i.e., 1 hour before, 9 hours and 20 hours after injection of endotoxin. The other 10 mice were injected with diluents as negative controls. The number of the mice survived at different periods to time after endotoxin injection were recorded. (P<0.0002).

[2] = razoxane 2 mg/mouse i.p. three times, endotoxin 70 μg at 0 h and 30 μg at 48 h

SMILES	IC50 [1]	Survival/Total Ratio after 24 h (BALB/C mice)	Survival/Total Ratio after 48 h (BALB/C mice)	Survival/Total Ratio after 72 h (BALB/C mice)	treated mice still alive 100 hours after endotoxin administration (BALB/C mice; [2])	treated mice still alive after 50 hours (BALB/C mice; [2])	IC50 ([1]; 10 ng enzyme, 2 hours preincubation at 37° C., 20 min assay, 3H collagen substrate, read-out: IC50 for inhibition of the 72 kD collagenase type IV)
CC(CN1CC(=O)NC(=O)C1)N1CC(=O)NC(=O)C1 (stereo not shown) [razoxane]	44 µM	10/12	9/12	7/12	about 60%	approximately 80%	
CC1(C)O[C@H]2C[C@H](N3CC(=O)NC(=O)C3)[C@@H](N3CC(=O)NC(=O)C3)C[C@@H]2O1 (relative stereo) [Compound 80, (3aα, 5β, 6α, 7aβ)-4,4'-(hexahydro-2,2-dimethyl-1,3-benzodioxole-5,6-diyl)bis(2,6-piperazinedione)]		10/10	8/10	6/10			1.8 µM
